PubChem BioAssay (NCI)
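Protocol summary: plate cells (96-well), add compound at 5 concentrations, incubate 48 h, interpolate endpoints linearly. At the GI50, growth is halved. TGI is the concentration that stops growth completely.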

Legend:
Assay in all cases: NCI tumour cell line growth inhibition, 48 h
CCRF-CEM leukemia = tested on: CCRF-CEM leukemia
K-562 leukemia = tested on: K-562 leukemia
UACC-62 melanoma = tested on: UACC-62 melanoma
SK-MEL-2 melanoma = tested on: SK-MEL-2 melanoma
UO-31 renal = tested on: UO-31 renal
U251 CNS = tested on: U251 CNS
RPMI-8226 leukemia = tested on: RPMI-8226 leukemia
IGROV1 ovarian = tested on: IGROV1 ovarian
SF-295 CNS = tested on: SF-295 CNS
OVCAR-3 ovarian = tested on: OVCAR-3 ovarian

SMILES | GI50 (CCRF-CEM leukemia) | TGI (CCRF-CEM leukemia) | GI50 (K-562 leukemia) | TGI (K-562 leukemia) | GI50 (UACC-62 melanoma) | TGI (UACC-62 melanoma) | GI50 (SK-MEL-2 melanoma) | TGI (SK-MEL-2 melanoma) | GI50 (UO-31 renal) | TGI (UO-31 renal) | GI50 (U251 CNS) | TGI (U251 CNS) | GI50 (RPMI-8226 leukemia) | TGI (RPMI-8226 leukemia) | GI50 (IGROV1 ovarian) | TGI (IGROV1 ovarian) | GI50 (SF-295 CNS) | TGI (SF-295 CNS) | TGI (OVCAR-3 ovarian) | GI50 (OVCAR-3 ovarian)
O=C(Nc1cccc(NC(=O)Nc2cc(C(F)(F)F)ccc2Cl)c1)Nc1cc(C(F)(F)F)ccc1Cl | 3.21 µM | 71.7 µM | 2.17 µM | 44.7 µM | 2.35 µM | 16.8 µM | 2.53 µM | 7.33 µM | 2.49 µM | 14.7 µM | 1.93 µM | 7.91 µM | 1.87 µM | 50.7 µM | 3.52 µM | 18.8 µM | 1.59 µM | 12.2 µM | – | –
C=C1C(=O)OC2/C=C(/C)C(OC(C)=O)CC(O)/C(C)=C\C(OC(=O)/C(C)=C\C)C12 (stereo unspecified) | – | > 100 µM | – | > 100 µM | – | > 100 µM | – | > 100 µM | – | – | – | > 100 µM | – | > 100 µM | – | > 100 µM | – | > 100 µM | > 100 µM | –
C[Si](C)(C)c1ccc(-c2sc(-c3ccc([Si](C)(C)C)s3)c3c2C[Si]2(C3)Cc3c(-c4ccc([Si](C)(C)C)s4)sc(-c4ccc([Si](C)(C)C)s4)c3C2)s1 | – | > 100 µM | – | > 100 µM | – | > 100 µM | – | – | – | > 100 µM | – | > 100 µM | – | > 100 µM | – | > 100 µM | – | > 100 µM | > 100 µM | –
CCc1cccc(C)c1NC(=O)C(=O)Cc1nc2ccccc2s1 | – | > 100 µM | – | > 100 µM | – | > 100 µM | – | > 100 µM | – | > 100 µM | – | > 100 µM | – | – | – | 20.8 µM | – | > 100 µM | > 100 µM | –
C[C@]12CC[C@H]3[C@@H](CC[C@]4(O)C[C@@H](O)CC[C@]34/C=N/O)[C@@]1(O)CC[C@@H]2C1=COC(=O)C1 | – | > 100 µM | – | 0.93 µM | – | 0.919 µM | – | 0.587 µM | – | – | – | – | – | – | – | 2.98 µM | – | 0.386 µM | 0.349 µM | –
O=S1(=O)OCCOS(=O)(=O)C1Cc1ccccc1 | – | – | – | > 100 µM | – | > 100 µM | – | – | – | > 100 µM | – | > 100 µM | – | 69.2 µM | – | 93.3 µM | – | > 100 µM | 44.9 µM | –
COC(=O)C1=CC2C(=O)OC1CC2C#N (stereo unspecified) | – | > 100 µM | – | > 100 µM | – | > 100 µM | – | – | – | > 100 µM | – | > 100 µM | – | > 100 µM | – | > 100 µM | – | > 100 µM | > 100 µM | –
COc1cc([C@H]2OC[C@H]3[C@@H]2CO[C@@H]3c2cc(OC)c3c(c2)OCO3)cc(OC)c1OC | – | – | – | > 100 µM | – | > 100 µM | – | > 100 µM | – | > 100 µM | – | > 100 µM | – | > 100 µM | – | > 100 µM | – | > 100 µM | > 100 µM | –
COC(=O)CCC(NC(=S)N/N=C/c1ccco1)C(=O)OC (stereo unspecified) | – | > 100 µM | – | > 100 µM | – | > 100 µM | – | > 100 µM | – | > 100 µM | – | > 100 µM | – | – | – | > 100 µM | – | > 100 µM | > 100 µM | –
C[CH2][Sn]([CH2]C)([O]C(=O)C(OC(C)=O)c1ccccc1)[O]C(=O)C(OC(C)=O)c1ccccc1 (stereo unspecified) | 1.93 µM | 6.15 µM | 14.6 µM | 45.9 µM | – | – | 54.6 µM | > 100 µM | 19.5 µM | 43.4 µM | 37.6 µM | > 100 µM | 11.2 µM | 36.9 µM | > 100 µM | > 100 µM | > 100 µM | > 100 µM | > 100 µM | > 100 µM
COc1ccc2c(c1)C(=O)c1c-2c(N(C)C)nc2ccccc12 | > 100 µM | > 100 µM | > 100 µM | > 100 µM | > 100 µM | > 100 µM | > 100 µM | > 100 µM | > 100 µM | > 100 µM | > 100 µM | > 100 µM | > 100 µM | > 100 µM | > 100 µM | > 100 µM | – | – | – | –
CC1=C(CO)C(=O)O[C@@H]([C@@H](C)[C@H]2CC[C@H]3[C@@H]4C[C@@H](O)[C@@]5(O)CC=CC(=O)[C@]5(C)[C@H]4CC[C@]23C)C1 | – | > 100 µM | – | > 100 µM | – | > 100 µM | – | > 100 µM | – | – | – | > 100 µM | – | 92.2 µM | – | 31.6 µM | – | > 100 µM | > 100 µM | –
CCSCCCN(CCCSCC)CCCSCC | – | > 100 µM | – | > 100 µM | – | > 100 µM | – | – | – | > 100 µM | – | > 100 µM | – | – | – | > 100 µM | – | > 100 µM | > 100 µM | –
C=C1C(=O)OC2C1C(OC(=O)/C(C)=C/C)CC(O)(CCl)C1C(O)C3OC3(C)C21O (stereo unspecified) | – | > 50 µM | – | > 50 µM | – | > 50 µM | – | > 50 µM | – | – | – | > 50 µM | – | > 50 µM | – | > 50 µM | – | > 50 µM | > 50 µM | –
NC(=O)c1c(NC(=O)c2ccc3c(c2)OCO3)sc2c1CCC(=O)C2 | 0.333 µM | 2.32 µM | 0.356 µM | > 100 µM | – | – | – | – | – | – | 0.467 µM | > 100 µM | 0.339 µM | 1.6 µM | – | – | 2.31 µM | 6.71 µM | – | –
C/C=C(/COC(C)=O)C(=O)OC1C=C(C=O)C(C)(C)C=C1C (stereo unspecified) | – | > 100 µM | – | > 100 µM | – | > 100 µM | – | > 100 µM | – | > 100 µM | – | > 100 µM | – | – | – | > 100 µM | – | > 100 µM | – | –
CCCOC(=O)N1CCN(/[N+]([O-])=N/Oc2ccc([N+](=O)[O-])cc2[N+](=O)[O-])CC1 | – | – | 0.505 µM | > 100 µM | 2.26 µM | 5.59 µM | 2.71 µM | 7.78 µM | 3.5 µM | 48.9 µM | 2.03 µM | 3.96 µM | 0.49 µM | 2.41 µM | 1.3 µM | 4.05 µM | 3.76 µM | 14.9 µM | 4.48 µM | 2.29 µM
COc1ccc(C(C#N)Cc2cc(OC)c(OC)c(OC)c2)cc1 (stereo unspecified) | – | > 100 µM | – | > 100 µM | – | > 100 µM | – | – | – | > 100 µM | – | > 100 µM | – | > 100 µM | – | > 100 µM | – | 54.4 µM | > 100 µM | –
Cc1[nH]c2ccccc2c1C1Cc2ccccc2N1C(=O)/C=C/C(=O)O (stereo unspecified) | – | > 100 µM | – | > 100 µM | – | > 100 µM | – | > 100 µM | – | > 100 µM | – | > 100 µM | – | – | – | > 100 µM | – | > 100 µM | > 100 µM | –
C/C(CC(=O)Nc1ccc(Cl)cc1)=N\NC(N)=S | – | > 100 µM | – | > 100 µM | – | > 100 µM | – | > 100 µM | – | – | – | > 100 µM | – | > 100 µM | – | > 100 µM | – | > 100 µM | > 100 µM | –
O=C1CC(S(=O)(=O)O)C=C1Nc1cccc(Cl)c1 (stereo unspecified) | – | > 100 µM | – | > 100 µM | – | > 100 µM | – | > 100 µM | – | > 100 µM | – | > 100 µM | – | – | – | > 100 µM | – | > 100 µM | > 100 µM | –
CN1c2ccccc2N(C)C23N(C)c4ccccc4N(C)C12N(C)c1ccccc1N3C (stereo unspecified) | – | > 100 µM | – | > 100 µM | – | > 100 µM | – | > 100 µM | – | > 100 µM | – | > 100 µM | – | – | – | > 100 µM | – | > 100 µM | > 100 µM | –
Nc1[nH]nc2nc(-c3cccs3)cc(C(F)(F)F)c12 | – | – | > 25 µM | > 25 µM | > 25 µM | > 25 µM | > 22.3 µM | > 25 µM | > 25 µM | > 25 µM | > 23.7 µM | > 25 µM | > 25 µM | > 25 µM | > 25 µM | > 25 µM | > 25 µM | > 25 µM | > 25 µM | > 25 µM
Cc1ccc(Nc2nc(C)c(C(/C=C/c3ccc(/C=C/C(=N/NC(=O)C[n+]4ccccc4)c4sc(Nc5ccc(C)cc5[N+](=O)[O-])nc4C)cc3)=N\NC(=O)C[n+]3ccccc3)s2)c([N+](=O)[O-])c1 | – | > 100 µM | – | > 100 µM | – | 67 µM | – | > 100 µM | – | > 100 µM | – | > 100 µM | – | – | – | > 100 µM | – | > 100 µM | > 100 µM | –
O=C(Nc1ccc(Cl)c(Cl)c1)O/N=C\c1c(Cl)ccc([N+](=O)[O-])c1Cl | 1.88 µM | 5.1 µM | 0.825 µM | 6.56 µM | – | – | 2.34 µM | 4.98 µM | 1.45 µM | 2.88 µM | 1.68 µM | 3.14 µM | 1.62 µM | 4.3 µM | 2.08 µM | 4.57 µM | 2.8 µM | 8.14 µM | 2.76 µM | 1.31 µM
CC1=C2C(=CC(C)(C)C2O)C(=O)C(C)(O)C12CC2 (stereo unspecified) | – | 0.126 µM | – | 0.154 µM | – | 0.0324 µM | 0.0108 µM | 0.0283 µM | – | 0.0291 µM | 0.00775 µM | 0.102 µM | – | – | – | 0.132 µM | – | 0.0342 µM | 0.0494 µM | –
COc1ccc2ccccc2c1C1OC(=O)c2ccccc21 (stereo unspecified) | – | > 100 µM | – | > 100 µM | – | > 100 µM | – | – | – | > 100 µM | – | > 100 µM | – | > 100 µM | – | > 100 µM | – | > 100 µM | > 100 µM | –
CCOC(=O)C(=Cc1cccnc1C)C(=O)OCC | – | > 100 µM | – | 17.3 µM | – | 20.1 µM | – | 16 µM | – | 17.6 µM | – | 18.6 µM | – | – | – | 25 µM | – | 24.2 µM | 8.67 µM | –
Cc1ccccc1NC(=O)C(=O)CC(=O)c1c(C)n([O-])c2ccccc2[n+]1=O | – | – | – | > 100 µM | – | > 100 µM | – | > 100 µM | – | > 100 µM | – | > 100 µM | – | > 100 µM | – | > 100 µM | – | > 100 µM | > 100 µM | –
